Source: patent US20210038607A1, “OXADIAZOLYLTHIOPHENE DERIVATIVES USEFUL AS HISTONE DEACETYLASE INHIBITORS” (Karus Therapeutics Limited, priority 2018, published 2021)

Legend:
Human HDAC11 = biological target: T1, Human HDAC11 (Homo sapiens, UniProt Q96DB2); test: HDAC11 biochemical assay, class IIa-specific substrate; details: read-out: HDAC Isoform IC50 (nM) 11
T1 construct: Human HDAC11 (full length); His (N); host or cells: baculovirus expression system
T1 sequence (Q96DB2 1-347): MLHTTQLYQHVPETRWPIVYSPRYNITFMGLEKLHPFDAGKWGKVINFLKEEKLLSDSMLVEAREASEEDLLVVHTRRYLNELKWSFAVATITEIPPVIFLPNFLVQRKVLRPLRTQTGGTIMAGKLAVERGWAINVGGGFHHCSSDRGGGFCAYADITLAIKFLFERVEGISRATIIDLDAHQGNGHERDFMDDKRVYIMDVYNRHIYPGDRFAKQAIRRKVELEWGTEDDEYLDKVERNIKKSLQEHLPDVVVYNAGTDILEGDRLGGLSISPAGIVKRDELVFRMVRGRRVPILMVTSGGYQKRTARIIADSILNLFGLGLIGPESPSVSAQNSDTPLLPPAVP
Procedure, shortened: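 Full-length N-His human HDAC11 from baculovirus, 5 ng/μl, incubated with 50 μM Boc-Lys(trifluoroacetyl)-AMC for 30 min at 30 °C. Buffer: 50 mM Tris-HCl pH 8.0, 137 mM NaCl, 2.7 mM KCl, 1 mM MgCl2, 1 mg/mL BSA, 1% DMSO. Developer releases AMC; fluorescence read at 360/460 nm.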

Human HDAC7 = biological target: T2, Human HDAC7 (Homo sapiens, UniProt Q8WUI4); test: HDAC7 biochemical assay, class IIa-specific substrate; details: read-out: HDAC Isoform IC50 (nM) 7
T2 construct: (a.a. 518-end) with N-terminal GST tag; GST (N); host or cells: baculovirus expression system
T2 sequence (Q8WUI4 518-952 limits assumed): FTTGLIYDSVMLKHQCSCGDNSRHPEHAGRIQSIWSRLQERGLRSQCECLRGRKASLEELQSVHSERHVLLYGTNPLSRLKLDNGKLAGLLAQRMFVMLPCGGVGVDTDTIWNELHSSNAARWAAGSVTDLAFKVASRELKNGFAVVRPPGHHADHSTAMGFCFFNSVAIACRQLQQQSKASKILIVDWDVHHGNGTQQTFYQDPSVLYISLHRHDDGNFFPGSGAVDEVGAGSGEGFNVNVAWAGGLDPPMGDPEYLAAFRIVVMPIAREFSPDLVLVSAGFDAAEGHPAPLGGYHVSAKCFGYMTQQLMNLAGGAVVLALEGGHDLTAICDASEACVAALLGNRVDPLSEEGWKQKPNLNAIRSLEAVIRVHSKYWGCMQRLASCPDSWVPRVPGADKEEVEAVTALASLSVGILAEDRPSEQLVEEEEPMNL
Procedure, shortened: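 Two-step fluorogenic readout: class IIa-selective trifluoroacetyl-lysine AMC substrate (50 μM) deacetylated by N-terminal GST-HDAC7 fragment (0.001 ng/ul), then digested by developer, Ex/Em 360/460. Reaction: 30 min, room temperature, Tris-HCl pH 8.0, NaCl/KCl/MgCl2, 1 mg/mL BSA, 1% DMSO.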

Human HDAC8 = biological target: T3, Human HDAC8 (Homo sapiens, UniProt Q9BY41); test: HDAC8 biochemical assay, AMC-labeled peptide substrate; details: read-out: HDAC Isoform IC50 (nM) 8
T3 construct: full length with C-terminal His tag, MW=42.6 kDa; His (C); host or cells: baculovirus expression system
T3 sequence (Q9BY41 1-377): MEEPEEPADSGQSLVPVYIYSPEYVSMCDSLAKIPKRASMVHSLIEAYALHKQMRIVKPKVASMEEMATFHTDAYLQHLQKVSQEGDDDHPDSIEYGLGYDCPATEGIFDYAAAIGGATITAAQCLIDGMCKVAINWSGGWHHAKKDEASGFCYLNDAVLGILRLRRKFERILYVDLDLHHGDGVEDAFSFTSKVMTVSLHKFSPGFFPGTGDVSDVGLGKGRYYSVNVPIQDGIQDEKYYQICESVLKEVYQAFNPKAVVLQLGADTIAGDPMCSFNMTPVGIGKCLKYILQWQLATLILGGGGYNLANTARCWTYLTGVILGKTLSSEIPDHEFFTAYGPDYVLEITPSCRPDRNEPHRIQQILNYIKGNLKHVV
Procedure, shortened: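 Two-step fluorogenic readout: compounds and enzyme deacetylate 100 µM RHK(Ac)K(Ac)AMC for 2 h at 30° C (pH8.0 Tris buffer, BSA, 1% DMSO final), then developer releases AMC, read at 360/460 Ex/Em. Enzyme: 1 ng/ul full-length His-tagged human HDAC8 from baculovirus.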

Row | SMILES | IC50 (Human HDAC11) | IC50 (Human HDAC7) | IC50 (Human HDAC8)
1 | O=C(c1ccc(N(Cc2ccc(-c3noc(C(F)(F)F)n3)s2)c2cnccn2)nn1)N1CCCC1 [Example FI, N-(Pyrazin-2-yl)-6-(pyrrolidine-1-carbonyl)-N-({5-[5-(trifluoromethyl)-1,2,4-oxadiazol-3-yl]thiophen-2-yl}methyl)pyridazin-3-amine] | > 10000 nM | ≤ 500 nM | ≤ 1000 nM
2 | O=C(c1cnnc(N(Cc2ccc(-c3noc(C(F)(F)F)n3)s2)c2cnccn2)c1)N1C[C@H]2C[C@@H]1CO2 [Example FW, 5-[(1R,4R)-2-Oxa-5-azabicyclo[2.2.1]heptane-5-carbonyl]-N-(pyrazin-2-yl)-N-({5-[5-(trifluoromethyl)-1,2,4-oxadiazol-3-yl]thiophen-2-yl}methyl)pyridazin-3-amine] | > 10000 nM | ≤ 10000 nM | ≤ 10000 nM
3 | CC(C)(O)c1cnnc(N(Cc2ccc(-c3noc(C(F)(F)F)n3)s2)c2cnccn2)c1 [Example GS, 2-{6-[(Pyrazin-2-yl)({5-[5-(trifluoromethyl)-1,2,4-oxadiazol-3-yl]thiophen-2-yl}methyl)amino]pyridazin-4-yl}propan-2-ol] | > 10000 nM | ≤ 1000 nM | ≤ 10000 nM
4 | O=C(c1cnnc(N(Cc2ccc(-c3noc(C(F)(F)F)n3)s2)c2cnccn2)c1)N1CC(C(F)(F)F)C1 [Example GJ, N-(Pyrazin-2-yl)-N-({5-[5-(trifluoromethyl)-1,2,4-oxadiazol-3-yl]thiophen-2-yl}methyl)-5-[3-(trifluoromethyl)azetidine-1-carbonyl]pyridazin-3-amine] | > 10000 nM | ≤ 1000 nM | ≤ 10000 nM
5 | COC1CN(C(=O)c2cnnc(N(Cc3ccc(-c4noc(C(F)(F)F)n4)s3)c3cnccn3)c2)C1 [Example DZ, 5-(3-Methoxyazetidine-1-carbonyl)-N-(pyrazin-2-yl)-N-({5-[5-(trifluoromethyl)-1,2,4-oxadiazol-3-yl]thiophen-2-yl}methyl)pyridazin-3-amine] | > 10000 nM | ≤ 1000 nM | ≤ 10000 nM
6 | FC(F)(F)c1nc(-c2ccc(CN(c3ccccn3)c3ccccn3)s2)no1 [Example U, N-(Pyridin-2-yl)-N-({5-[5-(trifluoromethyl)-1,2,4-oxadiazol-3-yl]thiophen-2-yl}methyl)pyridin-2-amine] | > 10000 nM | ≤ 10000 nM | > 10000 nM
7 | FC(F)(F)c1nc(-c2ccc(CN(c3cnccn3)c3cc(-c4ccccn4)cnn3)s2)no1 [Example GM, N-(Pyrazin-2-yl)-5-(pyridin-2-yl)-N-({5-[5-(trifluoromethyl)-1,2,4-oxadiazol-3-yl]thiophen-2-yl}methyl)pyridazin-3-amine] | > 10000 nM | ≤ 500 nM | ≤ 10000 nM
8 | FC(F)(F)c1nc(-c2ccc(CN(c3cnccn3)c3ccc(CN4CCOCC4)nn3)s2)no1 [Example FN, 6-[(Morpholin-4-yl)methyl]-N-(pyrazin-2-yl)-N-({5-[5-(trifluoromethyl)-1,2,4-oxadiazol-3-yl]thiophen-2-yl}methyl)pyridazin-3-amine] | > 10000 nM | ≤ 1000 nM | ≤ 10000 nM
